How the values were obtained:
barnyardgrass [1] = experiment: Test A preemergence; format: in vivo, Echinochloa crus-galli; conditions: for Barnyardgrass plant response rating (0 to 100 scale, 0 is no effect, 100 is complete control): 125 g ai/ha; for Barnyardgrass plant response rating: 500 g ai/ha, 0 to 100 scale where 0 is no effect and 100 is complete control
Method in brief: (§1)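 Greenhouse pot test, loam/sand soil. Formulation: non-phytotoxic solvent mix plus surfactant. Pre: directed spray onto soil after sowing. Post: plants at 1–2 leaf, 2–10 cm. Rated visually vs untreated controls at ~10 d, 0 (no effect) to 100 (complete control).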

wheat [2] = experiment: Test A postemergence; format: in vivo, Triticum aestivum; conditions: 0 to 100 scale where 0 is no effect and 100 is complete control; for Wheat plant response rating: 125 g ai/ha; for Plant response rating, Wheat: 500 g ai/ha
Method in brief: as §1

morningglory [3] = experiment: Test A postemergence; format: in vivo, Ipomoea spp.; conditions: 0 to 100 scale where 0 is no effect and 100 is complete control; for Morningglory plant response rating: 125 g ai/ha; for Plant response rating, Morningglory: 500 g ai/ha
Method in brief: as §1

velvetleaf [4] = experiment: Test A postemergence; format: in vivo, Abutilon theophrasti; conditions: 0 to 100 scale where 0 is no effect and 100 is complete control; for Velvetleaf plant response rating: 125 g ai/ha; for Plant response rating, Velvetleaf: 500 g ai/ha
Method in brief: as §1

Heteranthera limosa = experiment: Test B flooded paddy test; format: in vivo; conditions: Flood, 250 g ai/ha; 0 to 100 scale where 0 is no effect and 100 is complete control
Method in brief: (§2)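 Flooded to 3 cm at the 2-leaf stage, pots received compound through the paddy water and were kept at that depth under greenhouse conditions. After 13–15 days, effect was rated by eye relative to controls, 0 = none and 100 = complete control.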

giant foxtail [5] = experiment: Test A postemergence; format: in vivo, Setaria faberii; conditions: 0 to 100 scale where 0 is no effect and 100 is complete control; for Foxtail, Giant plant response rating: 125 g ai/ha; for Plant response rating, Foxtail, Giant: 500 g ai/ha
Method in brief: as §1

large (Lg) crabgrass [6] = experiment: Test A preemergence; format: in vivo, Digitaria sanguinalis; conditions: for Crabgrass, Large plant response rating (0 to 100 scale): 125 g ai/ha; for Crabgrass, Large plant response rating: 500 g ai/ha, 0 to 100 scale where 0 is no effect and 100 is complete control
Method in brief: as §1

pigweed [7] = experiment: Test A postemergence; format: in vivo, Amaranthus retroflexus; conditions: 0 to 100 scale where 0 is no effect and 100 is complete control; for Pigweed plant response rating: 125 g ai/ha; for Plant response rating, Pigweed: 500 g ai/ha
Method in brief: as §1

wheat [8] = experiment: Test A preemergence; format: in vivo, Triticum aestivum; conditions: for Wheat plant response rating (0 to 100 scale): 125 g ai/ha; for Wheat plant response rating: 500 g ai/ha, 0 to 100 scale where 0 is no effect and 100 is complete control
Method in brief: as §1

velvetleaf [9] = experiment: Test A preemergence; format: in vivo, Abutilon theophrasti; conditions: for Velvetleaf plant response rating (0 to 100 scale): 125 g ai/ha; for Velvetleaf plant response rating: 500 g ai/ha, 0 to 100 scale where 0 is no effect and 100 is complete control
Method in brief: as §1

morningglory [10] = experiment: Test A preemergence; format: in vivo, Ipomoea spp.; conditions: for Morningglory plant response rating (0 to 100 scale): 125 g ai/ha; for Morningglory plant response rating: 500 g ai/ha, 0 to 100 scale where 0 is no effect and 100 is complete control
Method in brief: as §1

pigweed [11] = experiment: Test A preemergence; format: in vivo, Amaranthus retroflexus; conditions: for Pigweed plant response rating (0 to 100 scale): 125 g ai/ha; for Pigweed plant response rating: 500 g ai/ha, 0 to 100 scale where 0 is no effect and 100 is complete control
Method in brief: as §1

sedge, umbrella = experiment: Test B flooded paddy test; format: in vivo, Cyperus difformis; conditions: Flood, 250 g ai/ha; 0 to 100 scale where 0 is no effect and 100 is complete control
Method in brief: as §2

large (Lg) crabgrass [12] = experiment: Test A postemergence; format: in vivo, Digitaria sanguinalis; conditions: 0 to 100 scale where 0 is no effect and 100 is complete control; for Crabgrass, Large plant response rating: 125 g ai/ha; for Plant response rating, Crabgrass, Large: 500 g ai/ha
Method in brief: as §1

rice = experiment: Test B flooded paddy test; format: in vivo, Oryza sativa; conditions: Flood, 250 g ai/ha; 0 to 100 scale where 0 is no effect and 100 is complete control
Method in brief: as §2

corn [13] = experiment: Test A preemergence; format: in vivo, Zea mays; conditions: for Corn plant response rating (0 to 100 scale): 125 g ai/ha; for Corn plant response rating: 500 g ai/ha, 0 to 100 scale where 0 is no effect and 100 is complete control
Method in brief: as §1

corn [14] = experiment: Test A postemergence; format: in vivo, Zea mays; conditions: 0 to 100 scale where 0 is no effect and 100 is complete control; for Corn plant response rating: 125 g ai/ha; for Plant response rating, Corn: 500 g ai/ha
Method in brief: as §1

giant foxtail [15] = experiment: Test A preemergence; format: in vivo, Setaria faberii; conditions: for Foxtail, Giant plant response rating (0 to 100 scale): 125 g ai/ha; for Foxtail, Giant plant response rating: 500 g ai/ha, 0 to 100 scale where 0 is no effect and 100 is complete control
Method in brief: as §1

barnyardgrass [16] = experiment: Test B flooded paddy test; format: in vivo, Echinochloa crus-galli; conditions: Flood, 250 g ai/ha; 0 to 100 scale where 0 is no effect and 100 is complete control
Method in brief: as §2

barnyardgrass [17] = experiment: Test A postemergence; format: in vivo, Echinochloa crus-galli; conditions: 0 to 100 scale where 0 is no effect and 100 is complete control; for Barnyardgrass plant response rating: 125 g ai/ha; for Plant response rating, Barnyardgrass: 500 g ai/ha
Method in brief: as §1

Row | Compound | Barnyardgrass plant response rating (0 to 100 scale, 0 is no effect, 100 is complete control) (barnyardgrass [1]) | Barnyardgrass plant response rating (barnyardgrass [1]) | Wheat plant response rating (wheat [2]) | Plant response rating, Wheat (wheat [2]) | Morningglory plant response rating (morningglory [3]) | Plant response rating, Morningglory (morningglory [3]) | Velvetleaf plant response rating (velvetleaf [4]) | Plant response rating, Velvetleaf (velvetleaf [4]) | Plant response rating, Ducksalad (Heteranthera limosa) | Foxtail, Giant plant response rating (giant foxtail [5]) | Plant response rating, Foxtail, Giant (giant foxtail [5]) | Crabgrass, Large plant response rating (0 to 100 scale) (large (Lg) crabgrass [6]) | Crabgrass, Large plant response rating (large (Lg) crabgrass [6]) | Pigweed plant response rating (pigweed [7]) | Plant response rating, Pigweed (pigweed [7]) | Wheat plant response rating (0 to 100 scale) (wheat [8]) | Wheat plant response rating (wheat [8]) | Velvetleaf plant response rating (0 to 100 scale) (velvetleaf [9]) | Velvetleaf plant response rating (velvetleaf [9]) | Morningglory plant response rating (0 to 100 scale) (morningglory [10]) | further results
1 | COc1ccc(Br)c(-n2cc(Br)cn2)c1Oc1ncc(Cl)cn1 [Compound 201] | 0 | 0 | 0 | 0 | 20 | 20 | 30 | 70 | 40 | 0 | 40 | 20 | 40 | 20 | 40 | 0 | 0 | 0 | 0 | 0 | Morningglory plant response rating (morningglory [10]): 0; Pigweed plant response rating (0 to 100 scale) (pigweed [11]): 0; Pigweed plant response rating (pigweed [11]): 0; Plant response rating, Sedge, Umbrella (sedge, umbrella): 20; Crabgrass, Large plant response rating (large (Lg) crabgrass [12]): 0; Plant response rating, Crabgrass, Large (large (Lg) crabgrass [12]): 30; Plant response rating, Rice (rice): 0; Corn plant response rating (0 to 100 scale) (corn [13]): 0; Corn plant response rating (corn [13]): 0; Corn plant response rating (corn [14]): 0; Plant response rating, Corn (corn [14]): 0; Foxtail, Giant plant response rating (0 to 100 scale) (giant foxtail [15]): 20; Foxtail, Giant plant response rating (giant foxtail [15]): 50; Plant response rating, Barnyardgrass (barnyardgrass [16]): 0; Barnyardgrass plant response rating (barnyardgrass [17]): 0; Plant response rating, Barnyardgrass (barnyardgrass [17]): 10
2 | C=C(C)c1cccc(Oc2ncc(Cl)cn2)c1-n1cc(Br)cn1 [Compound 198] | 50 | 80 | 0 | 10 | 60 | 70 | 90 | 100 | 25 | 30 | 80 | 80 | 100 | 90 | 100 | 0 | 0 | 40 | 80 | 0 | Morningglory plant response rating (morningglory [10]): 10; Pigweed plant response rating (0 to 100 scale) (pigweed [11]): 100; Pigweed plant response rating (pigweed [11]): 100; Plant response rating, Sedge, Umbrella (sedge, umbrella): 20; Crabgrass, Large plant response rating (large (Lg) crabgrass [12]): 60; Plant response rating, Crabgrass, Large (large (Lg) crabgrass [12]): 90; Plant response rating, Rice (rice): 0; Corn plant response rating (0 to 100 scale) (corn [13]): 0; Corn plant response rating (corn [13]): 0; Corn plant response rating (corn [14]): 20; Plant response rating, Corn (corn [14]): 20; Foxtail, Giant plant response rating (0 to 100 scale) (giant foxtail [15]): 70; Foxtail, Giant plant response rating (giant foxtail [15]): 100; Plant response rating, Barnyardgrass (barnyardgrass [16]): 0; Barnyardgrass plant response rating (barnyardgrass [17]): 30; Plant response rating, Barnyardgrass (barnyardgrass [17]): 50
3 | C#Cc1cnc(Oc2cccc(C#N)c2-n2cc(Br)cn2)nc1 [Compound 215] | 0 | 10 | 0 | 0 | 10 | 10 | 40 | 50 | 0 | 0 | 10 | 20 | 80 | 70 | 80 | 0 | 0 | 0 | 10 | 0 | Morningglory plant response rating (morningglory [10]): 0; Pigweed plant response rating (0 to 100 scale) (pigweed [11]): 90; Pigweed plant response rating (pigweed [11]): 100; Plant response rating, Sedge, Umbrella (sedge, umbrella): 0; Crabgrass, Large plant response rating (large (Lg) crabgrass [12]): 10; Plant response rating, Crabgrass, Large (large (Lg) crabgrass [12]): 30; Plant response rating, Rice (rice): 0; Corn plant response rating (0 to 100 scale) (corn [13]): 0; Corn plant response rating (corn [13]): 0; Corn plant response rating (corn [14]): 0; Plant response rating, Corn (corn [14]): 20; Foxtail, Giant plant response rating (0 to 100 scale) (giant foxtail [15]): 0; Foxtail, Giant plant response rating (giant foxtail [15]): 50; Plant response rating, Barnyardgrass (barnyardgrass [16]): 0; Barnyardgrass plant response rating (barnyardgrass [17]): 0; Plant response rating, Barnyardgrass (barnyardgrass [17]): 30
4 | CC#Cc1cnn(-c2ccccc2Oc2ncc(Cl)cn2)c1 [Compound 189] | 20 | 90 | 20 | 50 | 50 | 100 | 90 | 100 | 70 | 40 | 80 | 90 | 100 | 100 | 100 | 0 | 10 | 60 | 80 | 0 | Morningglory plant response rating (morningglory [10]): 30; Pigweed plant response rating (0 to 100 scale) (pigweed [11]): 100; Pigweed plant response rating (pigweed [11]): 100; Plant response rating, Sedge, Umbrella (sedge, umbrella): 70; Crabgrass, Large plant response rating (large (Lg) crabgrass [12]): 30; Plant response rating, Crabgrass, Large (large (Lg) crabgrass [12]): 80; Plant response rating, Rice (rice): 0; Corn plant response rating (0 to 100 scale) (corn [13]): 0; Corn plant response rating (corn [13]): 0; Corn plant response rating (corn [14]): 10; Plant response rating, Corn (corn [14]): 40; Foxtail, Giant plant response rating (0 to 100 scale) (giant foxtail [15]): 70; Foxtail, Giant plant response rating (giant foxtail [15]): 100; Plant response rating, Barnyardgrass (barnyardgrass [16]): 0; Barnyardgrass plant response rating (barnyardgrass [17]): 10; Plant response rating, Barnyardgrass (barnyardgrass [17]): 90
